From article PMC11656837, “pH-Responsive Peptide Nanoparticles Deliver Macromolecules to Cells via Endosomal Membrane Nanoporation” (ACS Nano, 2024)

Key:
[1] = Particle size by quasielastic / dynamic light scattering; format: physicochemical; settings: QLS/DLS
Experimental: To test this hypothesis, we next studied the C16-D-pHD108 particle size in solution using quasielastic light scattering (QLS). Samples of C16-D-pHD108 were dissolved in PBS with 138 mM NaCl, PBS with 69 mM NaCl, or PO4 buffer with no added salt. Most measurements were made at 25 μM peptides, but we tested concentrations between 25 and 200 μM peptides. Buffer without peptides gave a very low scattering intensity and no coherent particle peaks. […] Salt concentrations of 0, 69, and 138 mM had only small effects on the nanoparticle size. The median particle size for all samples was ∼120 nm. Particle size distributions for 25 μM C16-D-pHD108 are shown in Figure 8C at several salt concentrations for independently prepared samples. In Figure 8D, the light scattering intensity is shown to be a linear function of peptide concentration, with a Y-intercept at zero.
Dynamic light scattering was performed by using a Malvern Zetasizer Nano ZS90 DLS instrument. After HPLC purification, 10 nmol aliquots of C16-D-pHD108 were dried in silanized Eppendorf tubes. Peptide readily dissolved in PBS buffer and other aqueous buffers and remained stable in solution. For DLS samples, C16-D-pHD108 was dissolved in PBS with 138 mM NaCl, in PBS with 69 mM NaCl (50% of normal), or in a PO4 buffer with no added salt. Most measurements were made at 25 μM peptide, but we tested concentrations between 25 and 200 μM peptide. […]

HeLa cells [2] = settings: 40 nM PE-III
Text: For this, we use PE-III, the third domain of the Pseudomonas exotoxin. This 25 kDa enzyme ADP ribosylates ribosomal elongation factor 2, thereby blocking protein synthesis and triggering apoptosis. […] Thus, apoptosis will occur only if an exogenous agent, such as a peptide, enables cytosolic delivery of the 4 × 3 nm PE-III protein, Figure 2A.
Comparison of peptide concentration midpoints requires a constant concentration of PE-III in each experiment. […] The major disadvantage of the PE-III assay to detect delivery is that only a few molecules of active PE-III delivered to the cytosol[36] will produce a positive result. To partly mitigate this effect in the assays described below, we use a constant 40 nM PE-III. At such a low concentration, each endosome will contain an average of fewer than one PE-III molecule if we assume passive entrapment of the cargo (see the Supporting Information).
The no treatment (no tx) control group contained cells but no peptide or PE-III enzyme. The Alamar Blue intensity of this group was defined as 100% viability. Media alone without cells was defined as 0% viability.
The concentration range used for each peptide was adjusted according to preliminary measurements of activity in this assay. We assessed PE-III delivery by measuring cell viability using Alamar Blue.
Fifteen thousand HeLa cells were seeded in a clear bottom, black-walled 96-well plate overnight at 37 °C with 5% CO2 in complete media (DMEM + phenol red +10% FBS + antimycotic/antibiotic + nonessential amino acids). Cells were then washed once in PBS and treated with PE-III and peptide in serum-free media without phenol red, with a 50 μL total volume. After a 2-day incubation with treatment, 50 μL of 10% Alamar blue reagent diluted in serum-free media was added directly to each well (5% Alamar blue final) and incubated for 1.5 h at 37 °C. The plate was then read at 550 equiv/590 em on a Biotek plate reader. Untreated cells were used as a negative control, and MelP5-treated cells served as a positive control.

HeLa cells [3] = test: Cytosolic delivery of green fluorescent protein (confocal microscopy); format: cell-based, human; settings: 25 μM peptide, 10 μM external GFP, overnight, 37 °C
Experimental: To validate the dextran delivery experiments, we also delivered two separate fluorescent proteins of ∼27 kDa molecular weight to the cytosol of two different cell lines using C16-D-pHD108 (see Figure 7). HeLa cells were incubated overnight with 10 μM green fluorescent protein (GFP), and Chinese Hamster Ovary (CHO) cells were incubated overnight with 3.5 μM yellow fluorescent protein (YFP), with and without 25 μM C16-D-pHD108. Just before imaging, external GFP and YFP were washed off and replaced with TAMRA-dextran (red) or fluorescent protein mTurquoise (blue), respectively, to mark the cell boundaries and extracellular spaces. […] These cells, especially those incubated with the higher 10 μM concentration of GFP, show endosomes with entrapped FP, just as we observed for dextran delivery. […] The apparent nuclear concentration of GFP in cells incubated with GFP but no peptide is indistinguishable from the background. […]
For fluorescent protein or fluorescein-(Fab)2 fragment delivery, HeLa cells were incubated at 37 °C overnight in the presence of GFP with and without C16-D-pHD108 and CHO cells were incubated at 37 °C overnight with YFP in the presence and absence of C16-D-pHD108. […] Quantitation of delivered protein was performed by comparing measured intensities from microscopy images of standard protein solutions of known concentrations.

Structure (SMILES): CCCCCCCCCCCCCCCC(=O)NCC(=O)N[C@@H](C(=O)NCC(=O)N[C@H](CCC(=O)O)C(=O)N[C@@H](C(=O)N[C@H](CC(C)C)C(=O)N[C@H](Cc1c[nH]cn1)C(=O)N[C@H](CCC(=O)O)C(=O)N[C@H](CC(C)C)C(=O)N[C@H](C)C(=O)N[C@H](CCC(=O)O)C(=O)NCC(=O)N[C@H](CC(C)C)C(=O)N1CCC[C@@H]1C(=O)N[C@H](CCC(=O)O)C(=O)N[C@H](CC(C)C)C(=O)N[C@H](CCC(N)=O)C(=O)N[C@H](CCC(=O)O)C(=O)N[C@H](Cc1c[nH]c2ccccc12)C(=O)N[C@@H](C(=O)N[C@H](Cc1c[nH]cn1)C(=O)N[C@H](C)C(=O)N[C@H](C)C(=O)N[C@H](CCC(N)=O)C(=O)N[C@H](CCC(N)=O)C(=O)N[C@H](CC(C)C)C(N)=O)[C@H](C)CC)C(C)C)[C@H](C)CC [C16-D-pHD108]
- stability of particle size distributions ([1]; after sample preparation, pH 7): stable up to a week
- median particle size / average diameter ([1]; all samples, buffer pH 7): around 120 nm
- cells that undergo apoptosis (HeLa cells [2]; 10 μM peptide): > 98%
- fold increase in activity over unmodified pHD108 (HeLa cells [2]; from EC50 in HeLa): 74 fold
- EC50 (HeLa cells [2]; read-out: EC50 (peptide concentration midpoint for PE-III-dependent apoptosis), HeLa, serum-free media, 48 h, 37 °C, Alamar Blue): 1.9 µM
- GFP concentration delivered to cell cytosol, median (HeLa cells [3]): about 2 μM
- GFP delivered to cytosol, median as percent of the external concentration (HeLa cells [3]): ~20%
